How the values were obtained:
[1] = Inhibition of AAPH induced linoleic acid oxidation (lipid peroxidation)
Text: AAPH induced linoleic acid oxidation has been developed as a quick and reliable antioxidant activity assay. It is based on the inhibition of linoleic acid oxidation, initiated by the thermal free radical producer 2,2′-azobis(2-amidinopropane) dihydrochloride (AAPH), providing a measure of how efficiently antioxidants protect against lipid oxidation in vitro. Oxidation of exogenous linoleic acid by AAPH is followed by UV spectrophotometry at 234 nm in a highly diluted sample [38].
For the reference sample in a UV cuvette, 10 μL of the test sample (100 μM diluted in DMSO), 10 μL linoleic acid (LA) (16 mM), and buffer solution (pH 7.4) were added to a final volume of 1ml. For the measurement sample, in a UV cuvette, 10 μL of test sample, 50 μL AAPH (40 mM), 10 μL LA, and buffer solution were added to a final volume of 1 mL. Standard and blank samples were prepared in the same way using DMSO (solvent) instead of the tested coumarin analogues. The absorbance was measured after 2 min at 37 °C at 234 nm. Results were obtained via the following Equation (5):(5) %Inhibition=(Standard−Blank)−(Reference Sample−Measurement Sample)/(Standard−Blank) × 100

[2] = MTT cell viability assay, HaCaT; type: cell-based, human; conditions: human, HaCaT cells, 100 μΜ, 24 h
Text: (§1) The MTT assay (3- [4,5-dimethylthiazol-2-yl] -2,5 diphenyl tetrazole) is based on the conversion of MTT to formazan crystals by living cells, which determines mitochondrial activity. Since for most cell populations total mitochondrial activity is related to the number of viable cells, this assay is widely used to measure the in vitro cytotoxic effects of drugs on various cell lines or primary cells. The principle of the MTT assay is that for most viable cells the mitochondrial activity is stable, and therefore, an increase or decrease in the number of viable cells is linearly related to mitochondrial activity. The mitochondrial activity of the cells is reflected by the conversion of the MTT tetrazole salt to formazan crystals (bright purple), which can be solubilized (in this protocol with DMSO) for homogeneous measurement. Thus, any increase or decrease in the number of viable cells can be detected by measuring the formazan concentration reflected in the optical density (OD) measurement at 540 nm with a reference absorption of 720 nm.
(§2) All the compounds were tested for their cytotoxic activity against blank and control samples in the human epidermal keratinocyte line (HaCaT), at the concentration of 100 μΜ, and the results are presented in Table 4.
(§3) This protocol was used for the evaluation of cell viability and all the cell lines. It must be noted that this assay describes the count of cells that remain alive after the treatment. For the experimental procedure a standard solution of MTT 1mg/mL in PBS was prepared which after filtration ([…] filter (Millipore, Carrigtwohill, Ireland)) was stored in the dark (4–8 °C) until use. In a 96-well plate, HaCaT, A549 and A375 cells were seeded in a number of 30 × 10^4 cells/well for each evaluation series respectively. The cells were incubated (37 °C, 5% CO2) for 24 h, followed by the addition of the tested analogues (100 μM, diluted in DMEM) and another 24-h incubation. Next, appropriate amount of MTT was added in the tested wells and the plate returned to the incubator for the next 4 h for the formation of the formazan crystals. The formazan crystals were then redissolved by adding DMSO (100 μL) and stirring lightly for 40 min, after which the absorbance was measured in a plate reader at 540 nm with a reference absorbance of 720 nm.
(§4) All samples were tested in triplicate, against a control (only cells), blank (no cells), and positive control (100 μM standard silibinin solution was used as a “cell-killing” standard).

[3] = system: HaCaT cells; test: MTT cell viability assay, HaCaT; type: cell-based, human; conditions: 100 μM
Text: as §1, §2, §3, §4

Compound | IC50 [1] [µM] | viability at 24 h, 100 μM [2] [%] | AAPH % inhibition (100 μΜ) [1] | cytotoxicity in HaCaT [3] [%]
CC(=O)Oc1cccc2oc(=O)c(-c3ccccc3Cl)c(C)c12 [Compound 3a, 5-acetyloxy-3-(2-chlorophenyl)-4-methyl-chromen-2-one] | 71.9 | 100 |  | 
CC(=O)Oc1cccc2oc(=O)c(-c3cccc(Cl)c3)c(C)c12 [Compound 3b, 5-acetyloxy-3-(3-chlorophenyl)-4-methyl-chromen-2-one] | 91.5 | 100 |  | 
CC(=O)Oc1cccc2oc(=O)c(-c3ccc(Cl)cc3)c(C)c12 [Compound 3c, 5-acetyloxy-3-(4-chlorophenyl)-4-methyl-chromen-2-one] | 75.1 | 100 |  | 
CC(=O)Oc1cccc2oc(=O)c(-c3ccccc3F)c(C)c12 [Compound 3d, 5-acetyloxy-3-(2-fluorophenyl)-4-methyl-chromen-2-one] |  | 100 |  | 
CC(=O)Oc1cccc2oc(=O)c(-c3cccc(F)c3)c(C)c12 [Compound 3e, 5-acetyloxy-3-(3-fluorophenyl)-4-methyl-chromen-2-one] |  | 96.5 | inactive and no | 
CC(=O)Oc1cccc2oc(=O)c(-c3ccc(F)cc3)c(C)c12 [Compound 3f, 5-acetyloxy-3-(4-fluorophenyl)-4-methyl-chromen-2-one] |  | 100 |  | 
CC(=O)Oc1cccc2oc(=O)c(-c3cccc(Br)c3)c(C)c12 [Compound 3g, 5-acetyloxy-3-(3-bromophenyl)-4-methyl-chromen-2-one] | 50.7 | 100 |  | 
CC(=O)Oc1ccc(-c2c(C)c3ccccc3oc2=O)cc1 [Compound 3h, 3-(4-acetyloxyphenyl)-4-methyl-chromen-2-one] | 70.7 | 96.2 |  | 
CC(=O)Oc1ccc(-c2c(C)c3cc(Br)ccc3oc2=O)cc1 [Compound 3i, 3-(4-acetyloxyphenyl)-6-bromo-4-methyl-chromen-2-one] | 70.7 | 100 |  | 
CC(=O)Oc1ccc(-c2c(C)c3cc(Cl)ccc3oc2=O)cc1 [Compound 3j, 3-(4-acetyloxyphenyl)-6-chloro-4-methyl-chromen-2-one] |  | 90.5 | no | 
CC(=O)Oc1ccc(-c2c(C)c3cc(Br)cc(Br)c3oc2=O)cc1 [Compound 3k, 3-(4-acetyloxyphenyl)-6,8-dibromo-4-methyl-chromen-2-one] |  | 100 | inactive and no | 
CC(=O)Oc1ccc(-c2c(C)c3ccccc3oc2=O)cc1OC(C)=O [Compound 3l, 3-(4,5-diacetyloxyphenyl)-4-methyl-chromen-2-one] | 85.5 | 100 |  | 
CC(=O)Oc1ccc(-c2c(C)c3cc(Br)ccc3oc2=O)cc1OC(C)=O [Compound 3m, 3-(4,5-diacetyloxyphenyl)-6-bromo-4-methyl-chromen-2-one] | 37.1 | 100 |  | 
CC(=O)Oc1ccc(-c2c(C)c3cc(Cl)ccc3oc2=O)cc1OC(C)=O [Compound 3n, 3-(4,5-diacetyloxyphenyl)-6-chloro-4-methyl-chromen-2-one] | 84.3 | 100 |  | 
CC(=O)Oc1ccc(-c2c(C)c3cc(Br)cc(Br)c3oc2=O)cc1OC(C)=O [Compound 3o, 3-(4,5-diacetyloxyphenyl)-6,8-dibromo-4-methyl-chromen-2-one] | 77.2 | 100 |  | 
Cc1c(-c2ccccc2Cl)c(=O)oc2cccc(O)c12 [Compound 4a, 3-(2-chlorophenyl)-5-hydroxy-4-methyl-chromen-2-one] |  | 100 | no | 
Cc1c(-c2cccc(Cl)c2)c(=O)oc2cccc(O)c12 [Compound 4b, 3-(3-chlorophenyl)-5-hydroxy-4-methyl-chromen-2-one] |  | 100 | no | 
Cc1c(-c2ccc(Cl)cc2)c(=O)oc2cccc(O)c12 [Compound 4c, 3-(4-chlorophenyl)-5-hydroxy-4-methyl-chromen-2-one] | 86.6 | 63.7 |  | 63.7
Cc1c(-c2ccccc2F)c(=O)oc2cccc(O)c12 [Compound 4d, 3-(2-fluorophenyl)-5-hydroxy-4-methyl-chromen-2-one] |  | 100 | 0.0% | 
Cc1c(-c2cccc(F)c2)c(=O)oc2cccc(O)c12 [Compound 4e, 3-(3-fluorophenyl)-5-hydroxy-4-methyl-chromen-2-one] |  | 92.4 | 31.0% | 
Cc1c(-c2ccc(F)cc2)c(=O)oc2cccc(O)c12 [Compound 4f, 3-(4-fluorophenyl)-5-hydroxy-4-methyl-chromen-2-one] | 86.8 | 100 |  | 
Cc1c(-c2ccc(O)cc2)c(=O)oc2ccccc12 [Compound 4h, 3-(4-hydroxyphenyl)-4-methyl-chromen-2-one] |  | 100 | no | 
Cc1c(-c2ccc(O)cc2)c(=O)oc2ccc(Br)cc12 [Compound 4i, 6-bromo-3-(4-hydroxyphenyl)-4-methyl-chromen-2-one] | 70.7 | 100 |  | 
Cc1c(-c2ccc(O)cc2)c(=O)oc2ccc(Cl)cc12 [Compound 4j, 6-chloro-3-(4-hydroxyphenyl)-4-methyl-chromen-2-one] |  | 73 | 36.1% | 73
Cc1c(-c2ccc(O)cc2)c(=O)oc2c(Br)cc(Br)cc12 [Compound 4k, 6,8-dibromo-3-(4-hydroxyphenyl)-4-methyl-chromen-2-one] | 36.9 | 100 |  | 

Reference: PMC8512853, “Synthesis, Bioactivity, Pharmacokinetic and Biomimetic Properties of Multi-Substituted Coumarin Derivatives” (Molecules, 2021)
